We go through two molecules from article PMC10400579, “FDW028, a novel FUT8 inhibitor, impels lysosomal proteolysis of B7-H3 via chaperone-mediated autophagy pathway and exhibits potent efficacy against metastatic colorectal cancer” (Cell Death & Disease, 2023).

Usually Kd stands for the concentration at which binding is half-saturated.

The target in experiment [1] is T1, Fucosyltransferase 8 (FUT8) (Homo sapiens, UniProt Q9BYC5).
T1 sequence (Q9BYC5 31-575): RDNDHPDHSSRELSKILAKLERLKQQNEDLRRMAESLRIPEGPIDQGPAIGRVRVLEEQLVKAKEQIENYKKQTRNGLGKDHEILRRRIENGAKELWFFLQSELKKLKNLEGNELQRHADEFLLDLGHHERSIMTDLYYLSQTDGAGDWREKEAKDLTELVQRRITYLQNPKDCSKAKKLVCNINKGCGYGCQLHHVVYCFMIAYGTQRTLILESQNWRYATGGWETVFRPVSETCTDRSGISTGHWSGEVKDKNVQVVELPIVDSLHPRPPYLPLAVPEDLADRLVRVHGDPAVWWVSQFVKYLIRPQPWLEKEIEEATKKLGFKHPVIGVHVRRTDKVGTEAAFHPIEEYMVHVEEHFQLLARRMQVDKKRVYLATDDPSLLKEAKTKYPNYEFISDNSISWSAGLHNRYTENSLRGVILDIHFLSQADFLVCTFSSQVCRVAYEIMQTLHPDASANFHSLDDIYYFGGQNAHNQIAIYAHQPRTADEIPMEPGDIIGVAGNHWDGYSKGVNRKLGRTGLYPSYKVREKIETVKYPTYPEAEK
The experiment is described as follows: grating-coupled interferometry (GCI) with immobilized FUT8; supported by thermal shift of FUT8-Flag from SW480 cells (Tm +[…] °C at […]). In kind it is binding.

In experiment [2] the target is T2, Fucosyltransferase 8 (FUT8) (Homo sapiens, UniProt Q9BYC5).
T2 construct: FUT8-Flag
T2 sequence (Q9BYC5 1-575): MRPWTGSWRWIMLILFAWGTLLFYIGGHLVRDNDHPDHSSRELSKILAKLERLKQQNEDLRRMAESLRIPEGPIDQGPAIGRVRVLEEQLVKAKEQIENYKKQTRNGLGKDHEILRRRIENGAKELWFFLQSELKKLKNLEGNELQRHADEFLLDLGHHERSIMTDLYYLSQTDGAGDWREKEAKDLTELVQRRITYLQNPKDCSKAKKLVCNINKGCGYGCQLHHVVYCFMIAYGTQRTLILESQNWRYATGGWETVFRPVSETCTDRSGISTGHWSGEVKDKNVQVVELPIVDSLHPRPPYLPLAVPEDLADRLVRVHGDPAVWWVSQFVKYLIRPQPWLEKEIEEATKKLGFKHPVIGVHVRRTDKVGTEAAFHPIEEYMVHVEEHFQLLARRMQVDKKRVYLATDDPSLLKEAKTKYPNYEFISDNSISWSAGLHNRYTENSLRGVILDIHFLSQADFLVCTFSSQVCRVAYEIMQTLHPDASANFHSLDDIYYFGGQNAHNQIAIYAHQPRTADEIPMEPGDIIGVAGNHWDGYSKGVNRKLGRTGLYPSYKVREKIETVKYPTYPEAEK
The experiment is described as follows: streptavidin pulldown from SW480 lysate with […] probe, western blot and LC-MS/MS. It counts as cell-based. For orientation: In western blotting, separated proteins are transferred to a membrane and probed.

Take `CCc1ccc(CNc2nc3nc(CNCc4ccccc4)cc(O)n3n2)cc1` [D2-1c, FDW028]: in experiment [1], the Kd is 5.49 µM.

As for `CCc1ccc(CNc2nc3nc(CN(Cc4ccccc4)C(=O)CCOCCOCCOCCOCCOCCOCCNC(=O)CCCC[C@@H]4SC[C@@H]5NC(=O)N[C@@H]54)cc(O)n3n2)cc1` [FDW028-PEG6-biotin], the “streptavidin pulldown from SW480 lysate with 0.2 mM probe, western blot and LC-M” value in experiment [2] is on record as “much more FUT8-Flag was pulled down by FDW028-PEG6-biotin than the control”.
